Laboratory results taken from patent US11166942B2 (PRAXIS BIOTECH LLC, priority 2018, dated 2021).
Like-named read-outs stand apart in the source and are kept apart here.

Key:
CHO cells = assay: Protein production by transient gene expression (GFP in CHO cells); assay type: cell-based, Chinese hamster; settings: pIRES2-AcGFP1, 1 μM or 5 μM, 24 hours (FIGS. 12A, 12B)
Experimental: CHO cells were maintained at 37° C. and 5% CO2 in DMEM supplemented with 10% fetal bovine serum (FBS), 2 mM L-glutamine, 100 U/ml penicillin, and 100 μg/ml streptomycin. After reaching 80% of confluence, cells were detached and seeded on 6-well plates in complete media and allowed to recover for 48 h. Cells were then washed three times with PBS and transfected with 1 μg of plasmid pIRES2-AcGFP1 (Clonetech 632435) using Lipofectamine LTX (Thermofisher Scientific) according to manufacturer instructions. Transfection media was supplemented with culture medium alone (vehicle) or 1 μM or 5 μM compound 58 in culture medium.
(§1) After 24 hours treatment, culture media were removed and cells were lysed with SDS-PAGE lysis buffer. Lysates were transferred to 1.5 ml tubes and sonicated for 3 min. Total protein amount was quantified using BCA Protein Assay Kit (Pierce). Equal amount of proteins (30 μg) was loaded on SDS-PAGE gels. […]
GFP (cell Signaling) and β-actin (Sigma-Aldrich) antibodies were used as primary antibodies. […] Quantification of protein bands was done by densitometry using ImageJ software.
The levels were normalized to β-actin expression and percentage was calculated as the percent relative to the expression of GFP in untreated condition (Veh) which corresponds to 100%.

ATF4 = ATF4 inhibition assay under Aβ stimulation (SH-SY5Y cells with 7PA2 CHO conditioned media); assay type: cell-based, human; settings: 16 hours, 1 nM to 10 μM compound (FIG. 7)
Experimental: Chinese hamster ovary (CHO) cells that stably express human APP751 incorporating the familial Alzheimer's disease mutation V717F were used as a source of […] monomer and low-n oligomers. These cells, referred to as 7PA2 CHO cells, were cultured in 100 mm dishes with Dulbecco's modified Eagle's medium (DMEM) containing 10% fetal bovine serum, 2 mM L-glutamine, 100 U/ml penicillin, and 100 μg/ml […], streptomycin and […] G418. Upon reaching 90-100% confluency, cells were washed with 5 mL of glutamine- and serum-free DMEM and incubated for approximately 16 h in 5 mL of the same DMEM. Conditioned media (CM) was collected.
SH-SY5Y cells were maintained at 37° C. and 5% CO2 in RPMI 1640 media supplemented with 10% fetal bovine serum (FBS), penicillin and streptomycin. After reaching 80% of confluence, cells were detached and seeded on 6 well plates in complete media, allowed to recover 48 h and treated for 16 hours with CM from WT CHO cells (wtCM) or 7PA2 CHO cells (7PA2CM) in the presences of various concentrations ranging from 1 nM to 10 μM of compound 58.
as §1, with “After 16” for “After 24”, “μg) were” for “μg) was”

[1] = tested on: Chinese hamster ovary (CHO) cells; assay: Protein translation assay (puromycin labelling, CHO cells); assay type: cell-based; settings: Cricetulus griseus, CHO, media alone = 100%
Procedure, shortened: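 CHO cells given compound 2 h at 1 μM (unstressed), or 1 h at 100 nM or 1 μM then co-treated with 300 nM Tg (stressed); 10 μg/ml puromycin pulse 30 min, anti-puromycin western blot with β-actin, densitometry. Normalized to media alone (100%) and, for stressed cells, Tg alone (0%).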

With O=C(NN1CCN(C[C@@H](O)COc2ccc(Cl)c(F)c2)CC1)c1ccc2cc(Cl)ccc2n1 [Compound 58, (R)-6-chloro-N-(4-(3-(4-chloro-3-fluorophenoxy)-2-hydroxypropyl)piperazin-1-yl)quinoline-2-carboxamide] the “expression of GFP after transient transfection” value (CHO cells) was “increased expression of GFP”, the “ATF4 expression in the presence of Aβ oligomers (immunoblot)” value (ATF4) was “inhibits the expression of ATF4 in the presence of Aβ oligomers treatment in a dose dependent manner” and the activity at 1 µM ([1]; 2 h, unstressed CHO cells, 1 μM, 2 hours, read-out: % Protein synthesis in unstressed cells (1 μM test compound)) was 164%. It also gave an activity at 1 µM ([1]; CHO cells stressed with 300 nM Tg, 1 μM compound, Tg alone = 0%, read-out: % Recovery of protein expression (1 μM test compound)) of 118%.
